Experimental data as given in patent US5869492A, “Condensed thiazole derivatives, having 5-HT receptor affinity” (priority 1995, dated 1999).
Where a name gives a salt, the structure may show the parent alone. Read-outs that look alike come from different tables or passages of the source.

Experiments:
[1] = target: T1, noradrenaline reuptake sites (Rattus norvegicus, UniProt Q63380); experiment: [3H]noradrenaline uptake into rat frontal cortical synaptosomes; format: biochemical; conditions: [3H]noradrenaline 10 nM, mean of three determinations unless marked (** one), read-out: NA uptake Ki
T1 construct: Frontal cortical tissue from the brains of male Sprague-Dawley rats; from tissue; host or cells: crude frontal cortical synaptosomes of male Sprague-Dawley rats (Charles River)
Experimental: Frontal cortical tissue from the brains of male Sprague-Dawley rats (Charles River; weight range 150-250 g) was homogenised in ice-cold 0.32M sucrose (1:10 w/v) using a motor driven teflon pestle (difference in diameter between mortar and pestle 0.5 mm). Nuclei and cell debris were removed by centrifugation at 1,500 g at 4° C. for 10 minutes. The pellet (P1) was discarded and the supernatant centrifuged at 30,000 g at 4° C. for 10 minutes. The crude synaptosomal pellet (P2) was resuspended in Krebs-Physiological buffer (equivalent to 16.7 mg wet weight of tissue/ml).
Crude synaptosomes were incubated in a shaking water bath at 37° C. for 15 minutes. Aliquots (150 μl; equivalent to 2.5 mg wet weight of tissue/tube) were then added to tubes containing 275 μl of Krebs-Physiological buffer and 50 μl of Krebs-Physiological buffer (total uptake) or 50 μl of test compound (at a single concentration of 10^-6 M or 10 concentrations ranging from 10^-11 -10^-3 M) or 50 μl of desipramine (10^-5 M; non-specific uptake). Uptake was initiated by the addition of 25 μl of freshly prepared [^3 H]noradrenaline (10 nM), followed by vortexing and was continued for 5 minutes at 37° C. in the shaking water bath. Uptake was terminated by filtration under vacuum through Whatman GF/B filters using a Brandell cell harvester. Filters were then washed with 8 ml ice-cold saline. The scored filter paper discs were placed into vials, scintillation fluid added and radioactivity determined by liquid scintillation counting.

[2] = target: T2, 5-hydroxytryptamine (5-HT) reuptake sites (Rattus norvegicus, UniProt P31652); experiment: [3H]5-HT uptake into rat frontal cortical synaptosomes; format: biochemical
T2 construct: Frontal cortical tissue from the brains of male Sprague-Dawley rats; from tissue; host or cells: crude frontal cortical synaptosomes of male Sprague-Dawley rats (Charles River)
Experimental: Frontal cortical tissue from the brains of male Sprague-Dawley rats (Charles River; weight range 150-250 g) was homogenised in ice-cold 0.32M sucrose (1:10 w/v) using a motor driven teflon pestle (difference in diameter between mortar and pestle 0.5 mm). Nuclei and cell debris were removed by centrifugation at 1,500 g at 4° C. for 10 minutes. The pellet (P1) was discarded and the supernatant centrifuged at 30,000 g at 4° C. for 10 minutes. The crude synaptosomal pellet (P2) was resuspended in Krebs-Henseleit buffer (equivalent to 8.3 mg wet weight of tissue/ml).
Crude synaptosomes were incubated in a shaking water bath at 37° C. for 15 minutes. Aliquots (150 μl; equivalent to 1.25 mg wet weight of tissue/tube) were then added to tubes containing 275 μl of Krebs-Henseleit buffer and 50 μl of Krebs-Henseleit buffer (total uptake) or 50 μl of test compound (at a single concentration of 10^-6 M or at 10 concentrations ranging from 10^-11 -10^-3 M) or 50 μl of zimeldine (10^-5 M; non-specific uptake). Uptake was initiated by the addition of 25 μl of freshly prepared [^3 H]5-HT (2 nM), followed by vortexing, and was continued for 5 minutes at 37° C. in the shaking water bath. Uptake was terminated by filtration under vacuum through Skatron 11734 filters using a Skatron cell harvester. Filters were then washed with 8 ml ice-cold saline. The scored filter paper discs were punched into vials, scintillation fluid added and radioactivity determined by liquid scintillation counting.
For both the 5-HT uptake and noradrenaline uptake tests, the percentage inhibition of specific uptake of the tritiated ligand was calculated for the single concentration (10^-6 M) of test compound. Inhibition curves were then produced for those compounds which inhibited ≥50% of specific uptake of the tritiated ligand at 10 ^-6 M using a range of concentrations of test compound. The concentration which gave 50% inhibition of specific uptake (IC50) was obtained from the curve. The inhibition constant (Ki) was then calculated using the formula [formula] in which [ligand] is the concentration of tritiated ligand used and Km is the affinity of the uptake site for the ligand.

[3] = target: T3, 5-HT1A receptors (Rattus norvegicus, UniProt P19327); experiment: [3H]8-OH-DPAT binding to 5-HT1A receptors in rat hippocampal membranes; conditions: for Ki: [3H]8-OH-DPAT 2 nM, rat hippocampal membranes, mean of three determinations unless marked
T3 construct: Hippocampal tissue from the brains of male Sprague-Dawley rats; from tissue; host or cells: hippocampal membranes of male Sprague-Dawley rats (Charles River)
T3 sequence (P19327 1-422): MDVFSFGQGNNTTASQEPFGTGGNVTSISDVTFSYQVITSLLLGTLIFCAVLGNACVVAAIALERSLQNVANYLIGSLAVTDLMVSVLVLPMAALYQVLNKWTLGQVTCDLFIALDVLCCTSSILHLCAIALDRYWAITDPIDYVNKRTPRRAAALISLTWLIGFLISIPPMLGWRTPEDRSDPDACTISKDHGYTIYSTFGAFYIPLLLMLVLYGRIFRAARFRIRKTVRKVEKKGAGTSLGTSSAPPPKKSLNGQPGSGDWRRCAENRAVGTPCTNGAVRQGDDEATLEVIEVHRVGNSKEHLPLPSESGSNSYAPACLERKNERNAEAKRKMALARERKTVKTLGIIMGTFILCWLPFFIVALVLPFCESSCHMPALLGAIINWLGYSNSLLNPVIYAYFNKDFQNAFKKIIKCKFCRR
Experimental: Hippocampal tissue from the brains of male Sprague-Dawley rats (Charles River; weight range 150-250 g) was homogenised in ice-cold 50 mM Tris-HCl buffer (pH 7.7 when measured at 25° C., 1:40 w/v) and centrifuged at 30,000 g at 4° C. for 10 minutes. The pellet was rehomogenised in the same buffer, incubated at 37° C. for 10 minutes and centrifuged at 30,000 g at 4° C. for 10 minutes. The final pellet was resuspended in 50 mM Tris-HCI buffer (pH 7.7) containing 4 mM CaCl2, 0.1% L-ascorbic acid and 10 μM pargyline hydrochloride (equivalent to 6.25 mg wet weight of tissue/ml) and used immediately in the binding assay.
Aliquots (400 μl; equivalent to 2.5 mg wet weight of tissue/tube) of this membrane preparation were added to tubes containing [^3 H]8-hydroxy-2-(dipropylamino)tetralin ([^3 H]8-OH-DPAT; 50 μl; 2 nM) and distilled water (50 μl; total binding) or 5-HT (50 μl; 10 μM; non-specific binding) or test compound (50 μl; at a single concentration of 10^-6 M or at 10 concentrations ranging from 10^-11 -10^-3 M) and incubated at 25° C. for 30 minutes. The incubation was terminated by rapid filtration under vacuum through Skatron 11734 filters using a Skatron Cell Harvester. Filters were washed with ice-cold 50 mM Tris-HCl buffer, pH 7.7 (at 25° C., wash setting 9,9,0) and dried. The scored filter paper discs were punched out into vials, scintillation fluid added and radioactivity determined by liquid scintillation counting.
The percentage displacement of specific binding of the tritiated ligand was calculated for the single concentration (10^-6 M) of test compound. Displacement curves were then produced for those compounds which displaced ≥50% of specific binding of the tritiated ligand at 10^-6 M using a range of concentrations of the compound. The concentration which gave 50% inhibition of specific binding (IC50) was obtained from the curve. The inhibition coefficient Ki was then calculated using the formula [formula] in which [ligand] is the concentration of the tritiated ligand used and KD is the equilibrium dissociation constant for the ligand.

[4] = [3H]5-HT 2 nM, rat frontal cortical synaptosomes, mean of three determinations unless marked (* two), read-out: 5-HT uptake Ki

T2 sequence (P31652 whole entry): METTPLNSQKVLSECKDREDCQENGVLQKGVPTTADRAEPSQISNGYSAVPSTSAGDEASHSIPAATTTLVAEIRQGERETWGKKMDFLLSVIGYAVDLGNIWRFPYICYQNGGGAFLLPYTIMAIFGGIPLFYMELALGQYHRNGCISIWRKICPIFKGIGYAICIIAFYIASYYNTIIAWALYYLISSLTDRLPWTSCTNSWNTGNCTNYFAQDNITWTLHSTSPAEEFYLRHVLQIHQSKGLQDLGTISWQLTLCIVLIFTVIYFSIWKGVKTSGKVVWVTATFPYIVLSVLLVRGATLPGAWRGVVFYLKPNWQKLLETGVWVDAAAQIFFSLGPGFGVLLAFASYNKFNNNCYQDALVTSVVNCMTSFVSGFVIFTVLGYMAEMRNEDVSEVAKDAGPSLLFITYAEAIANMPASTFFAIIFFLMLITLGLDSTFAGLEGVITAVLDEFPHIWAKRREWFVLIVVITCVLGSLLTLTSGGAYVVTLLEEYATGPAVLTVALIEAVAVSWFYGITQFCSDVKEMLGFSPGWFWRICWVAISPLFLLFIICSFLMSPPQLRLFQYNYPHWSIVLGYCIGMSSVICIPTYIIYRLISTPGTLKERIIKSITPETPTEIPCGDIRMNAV
T1 sequence (Q63380 1-617): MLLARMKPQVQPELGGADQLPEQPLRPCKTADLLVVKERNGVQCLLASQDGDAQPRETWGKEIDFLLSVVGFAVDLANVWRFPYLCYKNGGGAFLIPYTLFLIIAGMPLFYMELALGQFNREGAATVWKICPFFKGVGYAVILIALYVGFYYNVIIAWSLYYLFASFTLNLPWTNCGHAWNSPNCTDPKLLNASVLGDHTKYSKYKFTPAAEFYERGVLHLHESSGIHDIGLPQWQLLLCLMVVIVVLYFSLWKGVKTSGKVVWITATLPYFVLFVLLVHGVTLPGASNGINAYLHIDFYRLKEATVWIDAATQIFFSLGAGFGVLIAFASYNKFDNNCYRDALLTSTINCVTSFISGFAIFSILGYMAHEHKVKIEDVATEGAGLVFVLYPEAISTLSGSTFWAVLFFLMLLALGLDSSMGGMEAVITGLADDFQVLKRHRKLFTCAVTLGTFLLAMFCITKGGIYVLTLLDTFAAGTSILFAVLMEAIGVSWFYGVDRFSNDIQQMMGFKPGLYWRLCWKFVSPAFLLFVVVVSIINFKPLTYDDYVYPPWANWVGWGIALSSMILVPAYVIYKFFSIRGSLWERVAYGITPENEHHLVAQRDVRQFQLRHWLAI

SMILES | Ki [1] [µM] | Ki [2] [µM] | Ki [3] [µM] | Ki [2, 4] [µM] | inhibition at 1 µM ([3]; single concentration 10^-6 M, [3H]8-OH-DPAT, * mean of two determinations, read-out: 5-HT1A % displacement at 10^-6 M) [%]
C1=C(c2csc3ccccc23)N2CCN=C2S1 [Example 1, 3-(benzo[b]thiophen-3-yl)-5,6-dihydroimidazo[2,1-b]thiazole monohydrobromide dihydrate] | 0.0028 | 0.0127 | 0.081 |  | 
C1=C(c2csc3ccccc23)N2CCCN=C2S1 [Example 2, 3-(benzo[b]thiophen-3-yl)-6,7-dihydro-5H-thiazolo[3,2-2a]pyrimidine] | 0.04 |  | 0.34 | 0.305 | 
C1=C(c2coc3ccccc23)N2CCN=C2S1 [Example 3, 3-(benzo[b]furan-3-yl)-5,6-dihydroimidazo[2,1-b]thiazole monohydrobromide monohydrate] | 0.041 | 0.084 | 0.118 |  | 
C1=C(c2coc3ccccc23)N2CCCN=C2S1 [Example 4, 3-(benzo[b]furan-3-yl)-6,7-dihydro-5H-thiazolo[3,2-a]pyrimidine] | 0.116 |  | 0.321 | 0.881 | 
Clc1ccc2scc(C3=CSC4=NCCN34)c2c1 [Example 5, 3-(5-chlorobenzo[b]thiophen-3-yl)-5,6-dihydroimidazo[2,1-b]thiazole monohydrobromide] | 0.013 | 0.0087 | 0.0407 |  | 
COc1ccc2scc(C3=CSC4=NCCN34)c2c1 [Example 6, 3-(5-methoxybenzo[b]thiophen-3-yl)-5,6-dihydroimidazo[2,1-b]thiazole monohydrobromide] | 0.051 | 0.022 | 0.0375 |  | 
Fc1ccc2scc(C3=CSC4=NCCN34)c2c1 [Example 7, 3-(5-fluorobenzo[b]thiophen-3-yl)-5,6-dihydroimidazo[2,1-b]thiazole monohydrobromide] | 0.0054 | 0.036 |  |  | 66
N#Cc1ccc2scc(C3=CSC4=NCCN34)c2c1 [Example 8, 3-(5,6-dihydroimidazo[2,1-b]thiazol-3-yl)benzo[b]thiophen-5-carbonitrile monohydrobromide] |  | 0.53 | 0.467 |  | 
